In general, AC50 refers to the concentration giving half of the maximal activity seen. Lower therefore signals activity at low concentration.

The target in test [1] is Beta-2 adrenergic receptor (Homo sapiens, UniProt P07550).
Test [2] has as its target T1, Cholecystokinin receptor type A (Homo sapiens, UniProt P32238).
T1 sequence (P32238 whole entry): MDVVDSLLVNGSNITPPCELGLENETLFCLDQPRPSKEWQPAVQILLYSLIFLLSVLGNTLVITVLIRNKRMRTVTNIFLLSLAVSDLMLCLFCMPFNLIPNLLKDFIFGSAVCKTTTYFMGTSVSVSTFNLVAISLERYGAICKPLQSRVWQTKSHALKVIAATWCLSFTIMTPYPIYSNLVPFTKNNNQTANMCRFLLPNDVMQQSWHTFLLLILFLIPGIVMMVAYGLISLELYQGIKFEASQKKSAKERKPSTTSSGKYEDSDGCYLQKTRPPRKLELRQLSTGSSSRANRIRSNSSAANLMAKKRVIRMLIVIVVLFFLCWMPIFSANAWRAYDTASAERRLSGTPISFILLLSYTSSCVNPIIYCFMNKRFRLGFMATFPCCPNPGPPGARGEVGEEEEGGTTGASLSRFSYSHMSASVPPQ

The target of test [3] is Muscarinic acetylcholine receptor M3 (Homo sapiens, UniProt P20309).
Test [4] addresses Neuronal acetylcholine receptor subunit alpha-4 (Homo sapiens, UniProt P43681).
The next test addresses Cannabinoid receptor 1 (Homo sapiens, UniProt P21554).
In a further test the target is T2, Endothelin-1 receptor (Homo sapiens, UniProt P25101).
T2 sequence (P25101 whole entry): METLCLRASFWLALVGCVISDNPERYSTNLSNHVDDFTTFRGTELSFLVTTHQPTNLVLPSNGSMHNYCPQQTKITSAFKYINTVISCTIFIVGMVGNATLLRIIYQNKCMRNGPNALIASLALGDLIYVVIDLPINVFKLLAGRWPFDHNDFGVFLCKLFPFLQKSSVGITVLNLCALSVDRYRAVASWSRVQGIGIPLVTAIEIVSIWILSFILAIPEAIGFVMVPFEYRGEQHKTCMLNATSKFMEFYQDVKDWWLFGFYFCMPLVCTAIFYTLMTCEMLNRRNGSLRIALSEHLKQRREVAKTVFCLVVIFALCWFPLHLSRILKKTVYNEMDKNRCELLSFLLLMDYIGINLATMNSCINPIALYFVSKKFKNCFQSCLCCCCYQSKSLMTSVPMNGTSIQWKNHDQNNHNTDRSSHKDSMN

Test [5] has as its target T3, 5-hydroxytryptamine receptor 1A (Homo sapiens, UniProt P08908).
T3 sequence (P08908 whole entry): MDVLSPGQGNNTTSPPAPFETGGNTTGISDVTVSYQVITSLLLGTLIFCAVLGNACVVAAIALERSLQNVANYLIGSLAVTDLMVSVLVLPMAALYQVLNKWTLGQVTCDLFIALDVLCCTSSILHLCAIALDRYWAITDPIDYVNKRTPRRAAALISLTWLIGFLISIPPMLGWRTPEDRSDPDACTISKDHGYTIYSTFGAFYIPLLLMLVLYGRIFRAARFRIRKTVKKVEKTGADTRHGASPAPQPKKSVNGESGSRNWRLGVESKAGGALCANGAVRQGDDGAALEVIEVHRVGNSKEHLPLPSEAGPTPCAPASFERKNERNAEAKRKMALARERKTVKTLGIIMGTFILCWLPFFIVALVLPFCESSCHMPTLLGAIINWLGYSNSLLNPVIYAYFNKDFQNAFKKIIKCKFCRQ
It counts as functional, cell-based.

For test [6], the target named is 5-hydroxytryptamine receptor 2A (Homo sapiens, UniProt P28223). It counts as functional, cell-based.
For the next test, the target named is Melanocortin receptor 4 (Homo sapiens, UniProt P32245).
Test [7] deals with T4, Neuropeptide Y receptor type 1 (Homo sapiens, UniProt P25929).
T4 sequence (P25929 whole entry): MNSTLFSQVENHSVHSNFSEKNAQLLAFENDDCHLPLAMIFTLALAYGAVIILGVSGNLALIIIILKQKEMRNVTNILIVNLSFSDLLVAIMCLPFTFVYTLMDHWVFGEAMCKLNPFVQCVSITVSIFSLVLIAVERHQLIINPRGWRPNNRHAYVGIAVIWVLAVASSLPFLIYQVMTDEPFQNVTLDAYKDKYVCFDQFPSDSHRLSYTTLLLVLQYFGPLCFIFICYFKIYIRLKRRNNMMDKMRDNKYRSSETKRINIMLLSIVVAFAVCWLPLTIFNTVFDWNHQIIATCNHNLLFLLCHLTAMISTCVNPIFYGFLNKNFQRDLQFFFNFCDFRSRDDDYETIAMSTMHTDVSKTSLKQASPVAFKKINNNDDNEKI

A further test has as its target T5, Progesterone receptor (Homo sapiens, UniProt P06401).
T5 sequence (P06401 whole entry): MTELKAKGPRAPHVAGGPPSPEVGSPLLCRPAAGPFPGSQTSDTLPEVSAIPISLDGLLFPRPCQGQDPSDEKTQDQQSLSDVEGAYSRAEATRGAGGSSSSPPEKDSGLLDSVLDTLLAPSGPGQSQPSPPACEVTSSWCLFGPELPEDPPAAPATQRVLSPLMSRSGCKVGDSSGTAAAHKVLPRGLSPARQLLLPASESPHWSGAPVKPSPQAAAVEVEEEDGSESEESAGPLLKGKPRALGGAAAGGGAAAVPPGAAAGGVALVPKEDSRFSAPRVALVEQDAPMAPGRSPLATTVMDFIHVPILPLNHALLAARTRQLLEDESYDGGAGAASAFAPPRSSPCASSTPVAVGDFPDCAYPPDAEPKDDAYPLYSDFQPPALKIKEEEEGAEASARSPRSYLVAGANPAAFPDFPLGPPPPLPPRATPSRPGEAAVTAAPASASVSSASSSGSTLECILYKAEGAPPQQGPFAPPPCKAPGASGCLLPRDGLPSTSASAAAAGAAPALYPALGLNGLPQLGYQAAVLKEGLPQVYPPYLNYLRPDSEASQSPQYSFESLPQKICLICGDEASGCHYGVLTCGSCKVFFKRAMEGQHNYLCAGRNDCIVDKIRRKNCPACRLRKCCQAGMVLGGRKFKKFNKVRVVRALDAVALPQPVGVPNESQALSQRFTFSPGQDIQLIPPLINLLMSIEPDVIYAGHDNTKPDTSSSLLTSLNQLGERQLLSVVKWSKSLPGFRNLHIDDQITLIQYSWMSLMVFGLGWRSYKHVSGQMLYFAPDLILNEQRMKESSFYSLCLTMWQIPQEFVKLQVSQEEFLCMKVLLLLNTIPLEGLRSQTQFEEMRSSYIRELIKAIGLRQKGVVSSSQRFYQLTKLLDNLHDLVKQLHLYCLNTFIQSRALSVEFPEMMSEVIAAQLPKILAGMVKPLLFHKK
Format: functional.

SMILES strings stand for the structures.
Further: assay procedure not described here.

Cannabinoid receptor 1, sequence (P21554 whole entry): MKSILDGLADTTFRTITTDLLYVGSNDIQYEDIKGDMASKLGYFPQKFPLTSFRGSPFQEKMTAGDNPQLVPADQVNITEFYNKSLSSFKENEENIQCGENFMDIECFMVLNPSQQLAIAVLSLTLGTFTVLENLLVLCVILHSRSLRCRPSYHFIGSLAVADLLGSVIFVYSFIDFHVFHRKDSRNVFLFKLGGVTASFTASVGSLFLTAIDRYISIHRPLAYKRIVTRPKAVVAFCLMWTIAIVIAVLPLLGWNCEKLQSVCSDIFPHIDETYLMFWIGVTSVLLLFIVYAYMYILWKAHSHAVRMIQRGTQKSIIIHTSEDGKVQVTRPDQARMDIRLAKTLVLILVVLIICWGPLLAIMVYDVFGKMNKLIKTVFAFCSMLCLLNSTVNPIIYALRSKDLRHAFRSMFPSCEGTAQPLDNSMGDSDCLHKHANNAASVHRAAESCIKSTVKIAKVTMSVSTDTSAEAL
Beta-2 adrenergic receptor, sequence (P07550 whole entry): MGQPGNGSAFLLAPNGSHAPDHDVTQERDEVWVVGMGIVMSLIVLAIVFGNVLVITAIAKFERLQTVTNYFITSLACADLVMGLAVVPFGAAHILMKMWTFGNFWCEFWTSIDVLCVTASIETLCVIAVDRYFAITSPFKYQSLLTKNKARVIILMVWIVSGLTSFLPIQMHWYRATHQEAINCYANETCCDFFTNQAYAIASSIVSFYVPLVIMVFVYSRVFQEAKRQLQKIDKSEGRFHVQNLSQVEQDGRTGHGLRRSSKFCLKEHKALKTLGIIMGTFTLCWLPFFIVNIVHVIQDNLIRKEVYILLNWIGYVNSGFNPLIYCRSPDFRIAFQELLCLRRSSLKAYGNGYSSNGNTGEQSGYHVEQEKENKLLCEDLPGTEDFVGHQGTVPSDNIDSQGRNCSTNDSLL
Melanocortin receptor 4, sequence (P32245 whole entry): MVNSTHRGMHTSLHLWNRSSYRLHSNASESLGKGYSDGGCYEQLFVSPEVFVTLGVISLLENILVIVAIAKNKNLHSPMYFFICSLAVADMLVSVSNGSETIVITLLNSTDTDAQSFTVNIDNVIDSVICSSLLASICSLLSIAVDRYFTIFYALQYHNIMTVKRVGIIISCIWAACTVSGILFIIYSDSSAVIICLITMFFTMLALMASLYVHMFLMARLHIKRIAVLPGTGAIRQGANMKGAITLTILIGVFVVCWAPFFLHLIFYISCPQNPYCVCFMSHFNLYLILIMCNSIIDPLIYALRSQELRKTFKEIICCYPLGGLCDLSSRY
5-hydroxytryptamine receptor 2A, sequence (P28223 whole entry): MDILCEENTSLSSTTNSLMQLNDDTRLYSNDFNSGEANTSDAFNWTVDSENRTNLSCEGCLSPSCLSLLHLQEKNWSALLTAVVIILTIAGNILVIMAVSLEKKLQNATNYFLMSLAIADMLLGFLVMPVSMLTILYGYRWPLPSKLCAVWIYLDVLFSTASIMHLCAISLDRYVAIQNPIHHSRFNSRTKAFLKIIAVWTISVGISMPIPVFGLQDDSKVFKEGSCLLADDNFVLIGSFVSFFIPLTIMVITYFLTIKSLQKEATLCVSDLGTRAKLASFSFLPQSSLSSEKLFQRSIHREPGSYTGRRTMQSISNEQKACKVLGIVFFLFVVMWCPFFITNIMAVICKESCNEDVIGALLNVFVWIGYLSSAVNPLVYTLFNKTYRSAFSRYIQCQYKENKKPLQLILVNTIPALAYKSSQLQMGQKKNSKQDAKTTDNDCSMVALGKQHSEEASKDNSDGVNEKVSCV
Muscarinic acetylcholine receptor M3, sequence (P20309 whole entry): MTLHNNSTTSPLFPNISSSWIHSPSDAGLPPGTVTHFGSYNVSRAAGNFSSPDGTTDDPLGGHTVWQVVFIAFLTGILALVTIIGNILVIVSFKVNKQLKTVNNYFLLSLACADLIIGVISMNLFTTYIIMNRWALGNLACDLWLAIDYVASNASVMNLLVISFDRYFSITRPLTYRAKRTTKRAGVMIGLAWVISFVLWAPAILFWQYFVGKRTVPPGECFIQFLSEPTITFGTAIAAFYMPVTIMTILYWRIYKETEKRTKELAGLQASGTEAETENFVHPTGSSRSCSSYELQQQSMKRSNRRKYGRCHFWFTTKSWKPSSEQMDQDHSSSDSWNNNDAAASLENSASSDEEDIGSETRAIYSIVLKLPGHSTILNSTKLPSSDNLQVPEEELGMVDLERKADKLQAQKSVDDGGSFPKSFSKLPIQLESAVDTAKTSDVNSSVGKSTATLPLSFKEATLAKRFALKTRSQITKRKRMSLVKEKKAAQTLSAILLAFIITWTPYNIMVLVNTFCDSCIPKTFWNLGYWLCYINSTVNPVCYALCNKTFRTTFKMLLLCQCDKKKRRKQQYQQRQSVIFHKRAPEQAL
Neuronal acetylcholine receptor subunit alpha-4, sequence (P43681 whole entry): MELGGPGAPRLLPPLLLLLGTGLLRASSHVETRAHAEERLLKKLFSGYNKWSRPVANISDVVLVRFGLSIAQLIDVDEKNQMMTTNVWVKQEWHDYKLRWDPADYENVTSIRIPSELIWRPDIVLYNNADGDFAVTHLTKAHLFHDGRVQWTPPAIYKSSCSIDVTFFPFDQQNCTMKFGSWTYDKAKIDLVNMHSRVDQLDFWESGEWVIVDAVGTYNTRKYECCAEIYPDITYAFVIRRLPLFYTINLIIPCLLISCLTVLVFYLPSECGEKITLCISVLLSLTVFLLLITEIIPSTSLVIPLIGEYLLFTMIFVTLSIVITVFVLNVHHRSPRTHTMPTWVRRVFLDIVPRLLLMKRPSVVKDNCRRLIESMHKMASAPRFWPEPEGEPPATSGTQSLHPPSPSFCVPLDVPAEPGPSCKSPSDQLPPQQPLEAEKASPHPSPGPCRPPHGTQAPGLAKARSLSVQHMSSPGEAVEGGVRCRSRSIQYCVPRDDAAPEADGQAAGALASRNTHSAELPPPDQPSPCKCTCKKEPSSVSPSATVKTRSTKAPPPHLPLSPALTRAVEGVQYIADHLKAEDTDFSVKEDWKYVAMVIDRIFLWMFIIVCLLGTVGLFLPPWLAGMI

As to `CC(C)(N)Cc1ccc(Cl)cc1` [CHLORPHENTERMINE], the AC50 in [1] was over 10 µM; in [2] it was over 30 µM; in test [3], over 30 µM; in test [4] it was 10 µM; at Cannabinoid receptor 1, over 10 µM; on Endothelin-1 receptor it was over 30 µM. For the same molecule, the AC50 is over 10 µM in [5], over 30 µM in test [6], over 30 µM on Melanocortin receptor 4 and over 30 µM in [7].
For the molecule `CN(C)[C@@H]1C(O)=C(C(N)=O)C(=O)[C@@]2(O)C(O)=C3C(=O)c4c(O)ccc(Cl)c4[C@@H](O)[C@H]3C[C@@H]12` [DEMECLOCYCLINE], the AC50 in [1] is over 10 µM; in [2], over 10 µM; in test [3] it was over 30 µM; in test [4], over 10 µM; at Cannabinoid receptor 1, over 10 µM; in [5] it was over 10 µM. Further, the AC50 (in test [6]; at Melanocortin receptor 4; in test [7]) was over 10 µM throughout.
For the molecule `NS(=O)(=O)c1cc(Cl)c(Cl)c(S(N)(=O)=O)c1` [DICHLORPHENAMIDE], the AC50 in test [1] was over 10 µM; in test [2], over 10 µM; in test [3] it was over 30 µM; in [4], over 10 µM; on Cannabinoid receptor 1, over 10 µM; in [5], over 10 µM. In addition, the AC50 (in [6]; at Melanocortin receptor 4; in test [7]; at Progesterone receptor) was over 10 µM throughout.
Regarding `O=C(Nc1ccccc1)OCC(CN1CCCCC1)OC(=O)Nc1ccccc1` (centres undefined) [DIPERODON], the AC50 was over 10 µM in [1]; 15 µM in [2]; over 10 µM in [3]; over 10 µM on Cannabinoid receptor 1; over 30 µM at Endothelin-1 receptor; over 10 µM in test [5]. Further, the AC50 (in test [6]; on Melanocortin receptor 4; in test [7]) was over 30 µM throughout.
Regarding `C=C1C[C@@H]2[C@H](CC[C@]3(C)C(=O)CC[C@@H]23)[C@@]2(C)C=CC(=O)C=C12` [EXEMESTANE], the AC50 in test [1] was over 10 µM; in test [2], over 30 µM; in test [3], over 30 µM; in [4] it was over 10 µM; at Cannabinoid receptor 1, over 10 µM; on Endothelin-1 receptor it was over 30 µM. Besides, the AC50 was over 10 µM in [5], over 30 µM in test [6], over 30 µM on Melanocortin receptor 4 and over 30 µM in test [7].
On to `CN(C/C=C/c1ccccc1)Cc1cccc2ccccc12` [NAFTIFINE], for which the AC50 is over 30 µM in [1]; over 30 µM in test [2]; over 30 µM in test [3]; over 10 µM in [4]; 9.87 µM at Cannabinoid receptor 1; over 10 µM in test [5]. Besides, the AC50 (at Melanocortin receptor 4; in [7]; at Progesterone receptor) was over 30 µM each time.
In the case of `CC(C)NCC1CCc2cc(CO)c([N+](=O)[O-])cc2N1` (centres undefined) [OXAMNIQUINE], the AC50 in test [1] is over 10 µM; in test [2], over 10 µM; in test [3], over 30 µM; in [4], over 10 µM; at Cannabinoid receptor 1, over 10 µM; in test [5], over 30 µM. Besides, the AC50 in test [6] was over 30 µM; on Melanocortin receptor 4 it was over 10 µM; in test [7], over 10 µM; on Progesterone receptor, over 10 µM.
In the case of `O=C(O)CCn1c2c(c3ccccc31)C[C@H](NS(=O)(=O)c1ccc(F)cc1)CC2` [RAMATROBAN], the AC50 in test [1] was over 30 µM; in test [2], 24.8 µM; in [3] it was over 30 µM; in [4], over 30 µM; on Cannabinoid receptor 1, over 10 µM; at Endothelin-1 receptor, over 10 µM. The AC50 in [5] was over 10 µM; in test [6], over 10 µM; at Melanocortin receptor 4, over 30 µM; in [7], over 30 µM; at Progesterone receptor, over 30 µM.
As for `O=P(O)(O)C(O)(Cc1cccnc1)P(=O)(O)O` [RISEDRONIC ACID], the AC50 in [1] is over 30 µM; in test [2], over 30 µM; in test [4], over 30 µM; on Cannabinoid receptor 1, over 30 µM; on Endothelin-1 receptor, over 30 µM; in [5], over 10 µM. In addition, the AC50 (at Melanocortin receptor 4; in test [7]; on Progesterone receptor) was over 30 µM in each case.
Turning to `O=C1CCC(N2C(=O)c3ccccc3C2=O)C(=O)N1` (centres undefined) [THALIDOMIDE], the AC50 in [1] was over 10 µM; in test [2], over 30 µM; on Cannabinoid receptor 1, over 10 µM; at Endothelin-1 receptor it was over 30 µM; in test [5], over 10 µM; at Melanocortin receptor 4, over 30 µM. In test [7], this molecule showed an AC50 of over 30 µM.
With `CC(=O)N[C@H]1[C@H]([C@H](O)[C@H](O)CO)OC(C(=O)O)=C[C@@H]1N=C(N)N` [ZANAMIVIR], the AC50 (in test [1]; in test [2]; in test [3]; in test [4]; on Cannabinoid receptor 1; in [5]) was over 30 µM throughout. The AC50 (in test [6]; at Melanocortin receptor 4; in test [7]; at Progesterone receptor) was over 30 µM throughout.

Source of the values: ChEMBL document CHEMBL5291721, “A preclinical secondary pharmacology resource illuminates target-adverse drug reaction associations of marketed drugs” (Nat Commun, 2023).
